Assay: Pseudo-titration in water with IRA-400(OH) anion exchange resin, samples assayed by HPLC
Format: physicochemical
Experimental: 60 g of Amberlite IRA400 (OH) resin was prewashed with 4.7 percent (by weight) ammonium hydroxide (50 ml of 28 percent ammonium hydroxide, 250 ml deionized water), followed by extensive washing with deionized water. The final conductivity was 6.1 μS.
Samples containing about 0.9 g of S-[2-[(1-Iminoethyl)amino]ethyl]-2-methyl-L-cysteine di-hydrochloride in 142 ml HCl/water solution, were concentrated on a rotary evaporator at 60° C. to an oil. To the oil, diluted to 60 ml with deionized water, was added aliquots of 0.5 g of washed anion exchange resin while stirring. At five minutes after each aliquot of resin was added, the solution pH was measured and a sample removed through a syringe filter. A total of 9 g of anion exchange resin was added. The final pH was 10.8. The resin was removed by filtration and the filtrate was concentrated to an oil by rotary evaporation at 60° C.; no solids formed. The starting material, final filtrate and all intermediate samples were assayed by HPLC and ion chromatography for chloride.
The diamond (solid line) is pH and square (dashed line) is S-[2-[(1-Iminoethyl)amino]ethyl]-2-methyl-L-cysteine (percent initial, by ion chromatography). […] The diamond (solid line) is pH and triangle (broken line) is chloride (by ion chromatography).
These curves are not true titration curves since samples were withdrawn during the progress of the reaction, and since true equilibrium was not attained before the increments of resin were added. Nevertheless, the graphs of FIG. 2 and FIG. 3 illustrate the expected trends. As resin is added to the S-[2-[(1-Iminoethyl)amino]ethyl]-2-methyl-L-cysteine solution the pH rises with change in slope around pH's of 2, 9 and 11. The pH's of slower rise are representative of the pK's of the carboxylic acid, amine and amidine functional groups, respectively. Above a pH of 10, the S-[2-[(1-Iminoethyl)amino]ethyl]-2-methyl-L-cysteine concentration in solution decreases. At this point, the S-[2-[(1-Iminoethyl)amino]ethyl]-2 methyl-L-cysteine is gaining a net negative charge and is binding to the resin. […] The final chloride content is approximately 0.04 mol equivalents.

[1] = pseudo-titration with anion exchange resin in water, not true titration curves

pH of slower rise representative of the pK of the amidine [1]: ~11
pH of slower rise representative of the pK of the amine [1]: ~9
pH of slower rise representative of the pK of the carboxylic acid [1]: ~2
Degradation by HPLC assay of the titration samples (samples up to final pH 10.8): no degradation
SMILES: CC(=N)NCCSC[C@](C)(N)C(=O)O [S-[2-[(1-Iminoethyl)amino]ethyl]-2-methyl-L-cysteine]

Source: US20050239754A1 (priority 2003, published 2005)
